System: HUVEC
Experiment: Endothelial permeability assay: electrical resistance across HUVEC monolayer (ECIS)
Type: cell-based, human
Details: for decreased resistance in PDZ-GEF2-depleted cells: PDZ-GEF2 siRNA
Experimental: FIG. 2: PDZ-GEF2 knockdown in HUVECs leads to immature adherens junction and decreases endothelial resistance. Panel A: PDZ-GEF2 knockdown leads to immature VE-cadherin-based junctions in endothelial cells. HUVEC were transfected twice with scrambled, Epac1 or PDZ-GEFs siRNA and replated on glass coverslips. The cells were fixed when they formed a monolayer and immunostained with anti-VE-cadherin antibody. Panel B: Basal electrical resistance across HUVEC monolayers. Cells were treated as described in A and replated on electrodes. ECIS was measured continuously for 15 hours and the values reported are the final time points. […] The values reported correspond to the endothelial resistance measured 90 minutes after adding 007 to the culture media. * p<0.03 control mock vs 007; p<0.001 PDZ-GEF2.285 mock vs 007.
293T and A549 cells were transfected using FuGENE6 reagent for 48 hours (Roche Diagnostics Corporation). For siRNA, A549 cells and HUVEC were transfected using oligofectamine (Invitrogen) for 24 to 48 hours according to the manufacturer's instructions. In the case of the HUVEC, transfection was repeated after 24 hours. Samples were analyzed 48 hours after the second round of transfection. Oligos sequences (Dharmacon): PDZ-GEF2 (285: GGATCCAACTTATATAGAA) (SEQ ID NO:______); (289: GACACGGATTGTATTATTA) (SEQ ID NO:______); *Epac1 (GCACCTA CGTCTGCAACAA) (SEQ ID NO:______) and (CCATCATCCTGCGAGAAGA) (SEQ ID NO:______). 8-pCPT-2′O-Me-cAMP/8-pCPT -2′-OMe-cAMP (Biolog) was used at a final concentration of 100 μM. Quantification of the PDZ-GEF2 knockdown was performed using Scion Image (Scion Corporation).
To assess endothelial permeability, we measured electrical resistance continuously across endothelial cell monolayer using the methodology known as “Electric Cell-Substrate Impedance Sensing” (ECIS).^[21] Briefly, HUVEC were grown to confluence on small gold electrodes and ECIS was subsequently monitored for up to 15 hours. Data was analyzed using the Applied Biophysics software.

[1] = HUVEC, 100 μM, 30-minute stimulation

Structure (SMILES): CO[C@@H]1[C@@H]2OP(=O)(O)OC[C@H]2O[C@H]1n1c(Sc2ccc(Cl)cc2)nc2c(N)ncnc21 [8-pCPT-2′-OMe-cAMP]
- endothelial resistance in PDZ-GEF2 knockdown HUVEC (90 minutes after adding 007, PDZ-GEF2.285, p<0.001 mock vs 007): rescues the PDZ-GEF2 knockdown phenotype
- endothelial resistance in control HUVEC (90 minutes after adding 007 to the culture media, p<0.03 mock vs 007): increases endothelial resistance
- electrical resistance in Epac1 siRNA cells (HUVEC transfected with Epac1 siRNA, 100 μM): minimal effect
- electrical resistance in scrambled siRNA cells [1]: increased resistance
- decreased resistance in PDZ-GEF2-depleted cells [1]: completely rescued
- decreased resistance in PDZ-GEF2-depleted cells (HUVEC, 100 μM, 30-minute stimulation, listed as 8-pCPT-2′OMe-cAMP): rescued

— patent US20080293076A1, “Method to improve barrier function of cell-cell junctions” (UMC Utrecht Holding B.V., priority 2007, published 2008)
